Here are results for 26 compounds from PubChem BioAssay AID1117355 (Cheminformatics & Chemogenomics Research Group (CCRG), …, 2015).

Activity calls are given as the source filed them. No rule for the calls is given here.

What is called inhibition is the drop in the measured response relative to a control, in per cent.

For this experiment, the target named is Glycogen synthase kinase-3 beta (Homo sapiens) (UniProt P49841). The experiment can be described thus: NPC library primary assay, GSK-3β enzyme inhibitors, biochemical, Homo sapiens, LANCE Ultra TR-FRET detection (AID 1117355). Conditions: LANCE Ultra TR-FRET kinase activity; at 20 µM (top of the series).
Sequence of Glycogen synthase kinase-3 beta (Homo sapiens) (P49841 whole entry, looked up): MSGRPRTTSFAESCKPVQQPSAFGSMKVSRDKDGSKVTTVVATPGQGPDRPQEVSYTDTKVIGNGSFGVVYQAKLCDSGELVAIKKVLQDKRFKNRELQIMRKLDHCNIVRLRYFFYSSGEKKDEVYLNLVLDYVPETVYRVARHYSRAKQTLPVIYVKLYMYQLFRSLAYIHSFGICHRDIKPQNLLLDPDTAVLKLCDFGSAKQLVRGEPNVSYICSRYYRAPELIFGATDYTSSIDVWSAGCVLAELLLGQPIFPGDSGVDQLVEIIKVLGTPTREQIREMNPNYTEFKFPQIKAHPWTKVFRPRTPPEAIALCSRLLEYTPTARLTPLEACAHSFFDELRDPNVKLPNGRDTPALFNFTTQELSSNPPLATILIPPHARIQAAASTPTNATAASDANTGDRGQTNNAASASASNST
Take `COC(=O)Nc1nc2ccc(Sc3ccccc3)cc2[nH]1`: the inhibition was -21% (inactive).

For the compound `Cc1nc(Nc2ncc(C(=O)Nc3c(C)cccc3Cl)s2)cc(N2CCN(CCO)CC2)n1`, the inhibition is 38.8% (inactive).

Turning to `COc1cccc2c1C(=O)c1c(O)c3c(c(O)c1C2=O)C[C@@](O)(C(C)=O)C[C@@H]3O[C@H]1C[C@H](N)[C@H](O)[C@H](C)O1`, the inhibition was 7.12% (inactive). Regarding `COc1cc2c(c(OC)c1OC)-c1ccc(OC)c(=O)cc1[C@@H](NC(C)=O)CC2`, the inhibition is 4.13% (inactive). Turning to `COc1c(C)c2c(c(O)c1C/C=C(\C)CCC(=O)OCCN1CCOCC1)C(=O)OC2`, the inhibition was 11.3% (inactive).

Take `COc1cc(-c2ccc(=O)[nH]n2)ccc1OC(F)F`: the inhibition was -21.7% (inactive).

Regarding `Cc1cc(C2CCCCC2)n(O)c(=O)c1`, the inhibition was 0.84% (inactive). Then `O=[N+]([O-])c1ccc(O)c2ncccc12`, with -9.81% (inactive); and `CCCN(CCC)C(=O)C(CCC(=O)OCCCN1CCN(CCOC(=O)Cc2c(C)n(C(=O)c3ccc(Cl)cc3)c3ccc(OC)cc23)CC1)NC(=O)c1ccccc1` (stereo unspecified), with 0.27% (inactive).

Take `CCCCCCCCCCCCCCCC[n+]1ccccc1`: the inhibition is -21.5% (inactive).

For `Nc1ccc2cc3ccc(N)cc3nc2c1`, the inhibition is -57.5% (inactive). Consider `O=c1[nH]c(=O)n([C@H]2C[C@H](O)[C@@H](CO)O2)cc1F`, for which the inhibition is -21.3% (inactive). Then `CC(=O)[C@]1(O)Cc2c(O)c3c(c(O)c2[C@@H](O[C@H]2C[C@H](N)[C@H](O)[C@H](C)O2)C1)C(=O)c1ccccc1C3=O`, with 5.63% (inactive). For `Nc1nc(=S)c2[nH]cnc2[nH]1` the value was -30.7% (inactive); for `Cn1cnc([N+](=O)[O-])c1Sc1ncnc2nc[nH]c12`, -18.2% (inactive). As to `Oc1c(I)cc(I)c2cccnc12`, the inhibition is -1.57% (inactive). Regarding `Cc1cc2c(C(C)C)c(O)c(O)c(C=O)c2c(O)c1-c1c(C)cc2c(C(C)C)c(O)c(O)c(C=O)c2c1O`, the inhibition was 7.52% (inactive). For `CCN(CC)CCNC(=O)c1c(C)[nH]c(/C=C2\C(=O)Nc3ccc(F)cc32)c1C` the value was 62.9%. Then `CCCCCCCCCCCCCC[N+](C)(C)C`, with -4.51% (inactive); and `COC(=O)Nc1nc2ccc(C(=O)c3ccccc3)cc2[nH]1`, with 25.4% (inactive); and `CCCSc1ccc2nc(NC(=O)OC)[nH]c2c1`, with -11.3% (inactive). Turning to `CNC(=O)c1cc(Oc2ccc(NC(=O)Nc3ccc(Cl)c(C(F)(F)F)c3)cc2)ccn1`, the inhibition was 47.6% (inactive). Then `C=C(C)[C@H]1Cc2c(ccc3c2O[C@@H]2COc4cc(OC)c(OC)cc4[C@@H]2C3=O)O1`, with 21.6% (inactive). For the compound `CCN(CC)CCNc1ccc(CO)c2sc3ccccc3c(=O)c12`, the inhibition was 24.6% (inactive). For `[O-][n+]1ccccc1SSc1cccc[n+]1[O-]` the value was -25.6% (inactive). Then `CC(=O)Oc1ccc(C2(c3ccc(OC(C)=O)cc3)Oc3ccccc3NC2=O)cc1`, with 19% (inactive).
